Results as given in the NIST ThermoML archive (doi:10.1016/j.fluid.2011.06.020).

Details: Liquid, Closed cell (Static) method

CCOC(=O)CCC(=O)O [4-ethoxy-4-oxobutanoic acid]
Details | vapor or sublimation pressure [kPa]
417.7 K | 1.587
421.2 K | 2.089
425.1 K | 2.591
428.5 K | 3.094
433 K | 3.596
435.6 K | 4.098
436.7 K | 4.601
439.8 K | 5.103
440.3 K | 5.605
443 K | 6.107
444.3 K | 6.61
445.9 K | 7.112
447.6 K | 7.614
449.1 K | 8.117
450.5 K | 8.619
452.1 K | 9.121
453.2 K | 9.624
454.7 K | 10.13
455.7 K | 10.63
456.5 K | 11.13
457.2 K | 11.63
458.2 K | 12.14
458.4 K | 12.64
459.8 K | 13.14
460.1 K | 13.64
460.3 K | 14.14
461.1 K | 14.65
462 K | 15.15
463.3 K | 15.65
463.8 K | 16.15
464.2 K | 16.66
464.5 K | 17.16
465.2 K | 17.66
465.8 K | 18.16
466.7 K | 18.67
467.3 K | 19.17
467.8 K | 19.67
468.3 K | 20.17
468.8 K | 20.67
469.5 K | 21.18
469.7 K | 21.68
469.8 K | 22.18
470.1 K | 22.68
470.3 K | 23.19
470.4 K | 23.69
470.5 K | 24.19
471.1 K | 24.69
471.4 K | 25.2
471.9 K | 25.7
